The values below come from BindingDB's records for patent US20230348421 (Geneora Pharma (Shijiazhuang) Co., 2023).

The target of this data set is hERG (Potassium voltage-gated channel subfamily H member 2) (Homo sapiens, UniProt Q12809). Kind of data set: Electrophysiological Assay. Particulars: CHO cells stably expressing hERG potassium channels. (Block of hERG is tested as a sign of cardiac risk.)
Chain of hERG (Potassium voltage-gated channel subfamily H member 2) (Q12809 whole entry): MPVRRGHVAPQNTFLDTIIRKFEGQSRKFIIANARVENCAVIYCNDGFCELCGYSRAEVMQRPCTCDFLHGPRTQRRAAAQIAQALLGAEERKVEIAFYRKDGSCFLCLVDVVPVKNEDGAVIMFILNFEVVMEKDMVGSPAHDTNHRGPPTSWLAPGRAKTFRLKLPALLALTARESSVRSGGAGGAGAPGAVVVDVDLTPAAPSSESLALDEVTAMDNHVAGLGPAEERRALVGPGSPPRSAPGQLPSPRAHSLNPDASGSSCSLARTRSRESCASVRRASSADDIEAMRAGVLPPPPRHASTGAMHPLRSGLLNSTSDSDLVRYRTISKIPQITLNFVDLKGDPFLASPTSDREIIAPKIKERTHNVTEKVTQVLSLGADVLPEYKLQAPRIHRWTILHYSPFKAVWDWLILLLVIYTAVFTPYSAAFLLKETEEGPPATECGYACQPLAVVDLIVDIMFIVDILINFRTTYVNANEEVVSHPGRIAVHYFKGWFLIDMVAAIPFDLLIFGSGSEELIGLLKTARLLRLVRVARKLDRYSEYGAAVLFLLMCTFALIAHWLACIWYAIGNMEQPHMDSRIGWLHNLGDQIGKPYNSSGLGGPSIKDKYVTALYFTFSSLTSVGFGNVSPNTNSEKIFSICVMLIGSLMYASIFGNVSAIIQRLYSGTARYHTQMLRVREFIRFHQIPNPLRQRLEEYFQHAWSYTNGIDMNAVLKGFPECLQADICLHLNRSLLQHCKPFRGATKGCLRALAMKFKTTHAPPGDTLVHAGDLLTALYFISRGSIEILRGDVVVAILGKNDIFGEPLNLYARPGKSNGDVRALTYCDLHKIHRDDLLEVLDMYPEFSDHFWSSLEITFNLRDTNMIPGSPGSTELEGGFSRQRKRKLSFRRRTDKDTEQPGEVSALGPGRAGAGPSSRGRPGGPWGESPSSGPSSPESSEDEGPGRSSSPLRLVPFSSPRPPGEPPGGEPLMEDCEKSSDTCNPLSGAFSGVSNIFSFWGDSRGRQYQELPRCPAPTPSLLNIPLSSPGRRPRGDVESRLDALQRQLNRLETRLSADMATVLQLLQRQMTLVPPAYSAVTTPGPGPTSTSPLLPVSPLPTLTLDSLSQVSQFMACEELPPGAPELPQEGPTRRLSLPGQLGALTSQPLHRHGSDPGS

Protocol: CHO (Chinese Hamster Ovary) cells stably expressing hERG potassium channels were taken, and hERG potassium channel currents were recorded at room temperature by means of a whole-cell patch-clamp technique. A glass microelectrode was formed by pulling a glass electrode blank (BF150-86-10, Sutter) with a glass microelectrode puller. The tip resistance was about 2-5 MΩ after perfusion of a pippette solution. The glass microelectrode could be connected to a patch clamp amplifier by inserting the glass microelectrode into an amplifier probe. Clamping voltages and data recording were controlled and recorded by a computer with pClamp 10 software, with a sampling frequency of 10 kHz and a filtering frequency of 2 kHz. After the whole-cell recording was obtained, the cells were clamped at −80 mV, and the step voltage evoking hERG potassium current (I hERG) was changed from −80 mV to +20 mV by giving a 2 s depolarization voltage and then repolarized to −50 mV for 1 s, and returned to −80 mV. Such voltage stimulation was given every 10 s, and the administration process was started after it was determined that the hERG potassium currents were stable (1 min). The compound at each test concentration was given at least 1 min, and at least 2 cells (n≥2) were tested for each concentration.

In general, IC50 refers to the concentration needed to halve the response being measured. Higher therefore signals lower potency. In the case of `CN1CCC(N(Cc2ccc(F)cn2)C(=O)NCc2ccc3c(c2)CC(C(F)(F)F)O3)CC1` (stereo unspecified) [US20230348421, Compound 89], the IC50 worked out at 2050 nM.
